{"source": "patent US7371766B2", "about": "“Curcumin analogs with anti-tumor and anti-angiogenic properties” (Emory University, priority 1999, dated 2008)", "key": {"NCI-H460": {"tested_on": "NCI-H460", "assay": "cells", "settings": "Homo sapiens, NCI-H460, 48 h"}, "MCF-7": {"tested_on": "MCF-7", "assay": "cells", "settings": "Homo sapiens, MCF7, 48 h"}, "[1]": {"tested_on": "Sixty human tumor cell lines", "settings": "NCI Anti-Tumor Screen, several cell types"}, "[2]": {"tested_on": "Sixty human tumor cell lines", "assay": "cells", "settings": "48 h"}, "MALME-3M": {"tested_on": "MALME-3M", "assay": "cells", "settings": "Homo sapiens, 48 h"}, "KM12": {"tested_on": "KM12", "assay": "cells", "settings": "Homo sapiens, KM12, 48 h"}, "HCC-2998": {"tested_on": "HCC-2998", "assay": "cells", "settings": "Homo sapiens, HCC 2998, 48 h"}, "HCT-116": {"tested_on": "HCT-116", "assay": "cells", "settings": "Homo sapiens, HCT-116, 48 h"}, "M14": {"tested_on": "M14", "assay": "cells", "settings": "Homo sapiens, M14, 48 h"}, "UO-31": {"tested_on": "UO-31", "assay": "cells", "settings": "Homo sapiens, UO-31, 48 h"}, "BT-549": {"tested_on": "BT-549", "assay": "cells", "settings": "Homo sapiens, BT-549, 48 h"}, "SK-MEL-28": {"tested_on": "SK-MEL-28", "assay": "cells", "settings": "Homo sapiens, SK-MEL-28, 48 h"}, "A549": {"tested_on": "A549", "assay": "cells", "settings": "Homo sapiens, A549, 48 h"}, "MDA-N": {"tested_on": "MDA-N", "assay": "cells", "settings": "Homo sapiens, 48 h"}, "CCRF-CEM": {"tested_on": "CCRF-CEM", "assay": "cells", "settings": "Homo sapiens, 48 h, read-out: Median Growth Inhibitory Concentration (GI50)"}, "SF-268": {"tested_on": "SF-268", "assay": "cells", "settings": "Homo sapiens, SF-268, 48 h"}, "DU-145": {"tested_on": "DU-145", "assay": "cells", "settings": "Homo sapiens, DU-145, 48 h"}, "OVCAR-5": {"tested_on": "OVCAR-5", "assay": "cells", "settings": "Homo sapiens, OVCAR-5, 48 h"}, "OVCAR-4": {"tested_on": "OVCAR-4", "assay": "cells", "settings": "Homo sapiens, OVCAR-4, 48 h"}, "HOP-62": {"tested_on": "HOP-62", "assay": "cells", "settings": "Homo sapiens, HOP-62, 48 h, read-out: Median Growth Inhibitory Concentration (GI50)"}, "HCT-15": {"tested_on": "HCT-15", "assay": "cells", "settings": "Homo sapiens, HCT-15, 48 h"}, "TK-10": {"tested_on": "TK-10", "assay": "cells", "settings": "Homo sapiens, TK-10, 48 h"}, "OVCAR-8": {"tested_on": "OVCAR-8", "assay": "cells", "settings": "Homo sapiens, OVCAR-8, 48 h"}, "T-47D": {"tested_on": "T-47D", "assay": "cells", "settings": "Homo sapiens, T47D, 48 h"}, "SK-MEL-5": {"tested_on": "SK-MEL-5", "assay": "cells", "settings": "Homo sapiens, SK-MEL-5, 48 h, read-out: Median Growth Inhibitory Concentration (GI50)"}, "K-562": {"tested_on": "K-562", "assay": "cells", "settings": "Homo sapiens, K562, 48 h"}, "RXF 393": {"tested_on": "RXF 393", "assay": "cells", "settings": "Homo sapiens, RXF 393, 48 h"}, "SK-OV-3": {"tested_on": "SK-OV-3", "assay": "cells", "settings": "Homo sapiens, SK-OV-3, 48 h"}, "RPMI-8226": {"tested_on": "RPMI-8226", "assay": "cells", "settings": "Homo sapiens, RPMI-8226, 48 h, read-out: Median Growth Inhibitory Concentration (GI50)"}, "[3]": {"settings": "read-out: Median Growth Inhibitory Concentration (GI50)"}, "[4]": {"settings": "read-out: Median Lethal Concentration (LC50)"}}}
{"smiles": "CC(=O)O.O=C1C(=Cc2ccccc2F)CNCC1=Cc1ccccc1F", "note": "[EF24, 3,5-Bis-(2-fluorobenzylidene)-piperidin-4-one-acetate]", "values": [{"measurement": "GI50", "setting": "NCI-H460; [3]", "value": 81000, "unit": "nM"}, {"measurement": "CC50", "setting": "NCI-H460; [4]", "value": 50100, "unit": "nM"}, {"measurement": "GI50", "setting": "MCF-7; [3]", "value": 200, "unit": "nM"}, {"measurement": "CC50", "setting": "MCF-7; [4]", "value": 5000, "unit": "nM"}, {"measurement": "GI50 compared with CISPLATIN, in words", "setting": "[1]", "value": "lower GI50 than the chemotherapeutic agent CISPLATIN for several cell types"}, {"measurement": "LC50 compared with CISPLATIN, in words", "setting": "[1]", "value": "lower LC50 than the chemotherapeutic agent CISPLATIN for several cell types"}, {"measurement": "GI50", "setting": "[2]; read-out: Median Growth Inhibitory Concentration (GI50), Mean", "value": 700, "unit": "nM"}, {"measurement": "CC50", "setting": "[2]; read-out: Median Lethal Concentration (LC50), Mean", "value": 13200, "unit": "nM"}, {"measurement": "GI50", "setting": "MALME-3M; [3]", "value": 2300, "unit": "nM"}, {"measurement": "CC50", "setting": "MALME-3M; [4]", "value": 25200, "unit": "nM"}, {"measurement": "GI50", "setting": "KM12; [3]", "value": 200, "unit": "nM"}, {"measurement": "CC50", "setting": "KM12; [4]", "value": 3400, "unit": "nM"}, {"measurement": "GI50", "setting": "HCC-2998; [3]", "value": 1100, "unit": "nM"}, {"measurement": "CC50", "setting": "HCC-2998; [4]", "value": 5000, "unit": "nM"}, {"measurement": "GI50", "setting": "HCT-116; [3]", "value": 200, "unit": "nM"}, {"measurement": "CC50", "setting": "HCT-116; [4]", "value": 1800, "unit": "nM"}, {"measurement": "GI50", "setting": "M14; [3]", "value": 1200, "unit": "nM"}, {"measurement": "CC50", "setting": "M14; [4]", "value": 27700, "unit": "nM"}, {"measurement": "GI50", "setting": "UO-31; [3]", "value": 600, "unit": "nM"}, {"measurement": "CC50", "setting": "UO-31; [4]", "value": 4500, "unit": "nM"}, {"measurement": "GI50", "setting": "BT-549; [3]", "value": 700, "unit": "nM"}, {"measurement": "CC50", "setting": "BT-549; [4]", "value": 4700, "unit": "nM"}, {"measurement": "GI50", "setting": "SK-MEL-28; [3]", "value": 2100, "unit": "nM"}, {"measurement": "CC50", "setting": "SK-MEL-28; [4]", "value": 33100, "unit": "nM"}, {"measurement": "GI50", "setting": "A549; [3]", "value": 1900, "unit": "nM"}, {"measurement": "CC50", "setting": "A549; [4]", "value": 89400, "unit": "nM"}, {"measurement": "GI50", "setting": "MDA-N; [3]", "value": 500, "unit": "nM"}, {"measurement": "CC50", "setting": "MDA-N; [4]", "value": 5600, "unit": "nM"}, {"measurement": "GI50", "setting": "CCRF-CEM", "value": 200, "unit": "nM"}, {"measurement": "GI50", "setting": "SF-268; [3]", "value": 600, "unit": "nM"}, {"measurement": "CC50", "setting": "SF-268; [4]", "value": 55600, "unit": "nM"}, {"measurement": "GI50", "setting": "DU-145; [3]", "value": 700, "unit": "nM"}, {"measurement": "CC50", "setting": "DU-145; [4]", "value": 5400, "unit": "nM"}, {"measurement": "GI50", "setting": "OVCAR-5; [3]", "value": 1300, "unit": "nM"}, {"measurement": "CC50", "setting": "OVCAR-5; [4]", "value": 9200, "unit": "nM"}, {"measurement": "GI50", "setting": "OVCAR-4; [3]", "value": 700, "unit": "nM"}, {"measurement": "CC50", "setting": "OVCAR-4; [4]", "value": 17200, "unit": "nM"}, {"measurement": "GI50", "setting": "HOP-62", "value": 700, "unit": "nM"}, {"measurement": "GI50", "setting": "HCT-15; [3]", "value": 200, "unit": "nM"}, {"measurement": "CC50", "setting": "HCT-15; [4]", "value": 13600, "unit": "nM"}, {"measurement": "GI50", "setting": "TK-10; [3]", "value": 3100, "unit": "nM"}, {"measurement": "CC50", "setting": "TK-10; [4]", "value": 27800, "unit": "nM"}, {"measurement": "GI50", "setting": "OVCAR-8; [3]", "value": 400, "unit": "nM"}, {"measurement": "CC50", "setting": "OVCAR-8; [4]", "value": 31300, "unit": "nM"}, {"measurement": "GI50", "setting": "T-47D; [3]", "value": 1300, "unit": "nM"}, {"measurement": "CC50", "setting": "T-47D; [4]", "value": 51900, "unit": "nM"}, {"measurement": "GI50", "setting": "SK-MEL-5", "value": 1300, "unit": "nM"}, {"measurement": "GI50", "setting": "K-562; [3]", "value": 300, "unit": "nM"}, {"measurement": "CC50", "setting": "K-562; [4]", "value": 75400, "unit": "nM"}, {"measurement": "GI50", "setting": "RXF 393; [3]", "value": 600, "unit": "nM"}, {"measurement": "CC50", "setting": "RXF 393; [4]", "value": 3600, "unit": "nM"}, {"measurement": "GI50", "setting": "SK-OV-3; [3]", "value": 1700, "unit": "nM"}, {"measurement": "CC50", "setting": "SK-OV-3; [4]", "value": 12800, "unit": "nM"}, {"measurement": "GI50", "setting": "RPMI-8226", "value": 200, "unit": "nM"}]}
